Data published in patent publication US9855320B2, “Angiogenin for treatment of glaucoma” (CHUNG-ANG UNIVERSITY INDUSTRY-ACADEMIC COOPERATION …, priority 2011, dated 2018).

Assays:
[1] = test system: chronic intraocular pressure increase rat model; test: Intraocular pressure in chronic intraocular pressure increase rat model (episcleral venous electric ablation); assay type: in vivo
Method: (§1) 0.05 cc/50 g of Tiletimine and Zolazepam-mixed medicament (Zoletil) and Xylazine (Rompum) were mixed at a ratio of 1:1 and then administered to 20 rats by intramuscular injection, thereby anesthetizing the rats. A limbus periphery was divided into four portions, each of which was then subjected to 2 mm dissection at an interval of 90 degrees, and then, two radial conjunctival excisions were performed on upper dissection periphery. […] After surgical isolation of vein, the vein was lifted up by using 3 mm-width spatula to be spaced apart from the peripheral tissue, and then, was subjected to electric ablation while being careful for the peripheral tissue not to have any thermal damage or any mechanical damage due to contact. Intraocular pressure was consecutively measured three or more times by using Tonopen (Solan, Fla., USA), and only reliable intraocular pressure values within 5 percentile were recorded. 10 eyes of 10 rats were daily treated 4 times with angiogenin 10 μl 2 days before test, and even after espisderal venous electric ablation, 4 times a day at time intervals of 6 hours. The other 10 eyes of the rats, as a control, were consecutively treated in the same manner with physiological saline solution 10 μl before and after the ablation. Before the operation, and 3 days, and 1, 2, 4, and 8 weeks after the operation, intraocular pressure was measured, and the rats were sacrificed to extract eyes therefrom, which were then subjected to tissue examination and immunechemical staining with respect to Brn-3a and CD11b, and a reverse transcription polymerase chain reaction was used to measure CD11b value in retinal tissue.

[2] = test system: CD11b marked macrophage; test: CD11b immunochemical staining of retina, chronic intraocular pressure increase model; assay type: in vivo, rat
Method: as §1, with “10 eyes of 10 rats were daily treated 4 times with angiogenin 10 μl 2 days before test, and even after espisderal venous electric ablation, 4 times a day at time intervals of 6 hours. The other 10 eyes of the rats, as a control, were consecutively treated in the same manner with physiological saline solution 10 μl before and after the ablation.” left out, “tissue. […]” for “tissue.”

[3] = test system: TGF-β; test: Reverse transcription polymerase chain reaction on injured tissue of corneal chemical burn model, TGF-β; assay type: in vivo, rat; details: third day and seventh day after keratoconjunctival chemical injury
Method: (§2) Three days, and 1, 2, 4, and 8 weeks after injuring, corneal opacity and neoangiogenesis level were assessed in consideration of images of anterior ocular segment, and on the third day and the seventh day, the respective conjunctiva damaged parts were collected and then subjected to a reverse transcription polymerase chain reaction to assay expression of IL-1a, TGF-β, SDF-1, and caspase-3.
(§3) Tissues obtained from chronic intraocular pressure increase model and corneal chemical burn model were frozen, and then cut into small parts by using a fine knife. The tissue parts were treated with 1 ml of TRI reagent (Molecular Research Center, Inc.) and then, tissue and cell were lysed by homogenizer. The respective implication cDNA […] 0.2 mM dNTP, 10×buffer, 10 pmols primer, and 0.2 U Taq polymerase were mixed to obtain a volume of 20 μl, and then, PCR thermal cycler (a machine for PCR) was used for reaction for 5 minutes at 95° C., 40 second at 94° C., 40 seconds at 48 to 64° C., 40 seconds (35 cycles) at 72° C., and 10 minutes at 72° C. The amplified polymerase chain reaction product was identified by 1% agarose gel electrophoresis. β actin was used as a positive control for the polymerase chain reaction, and relative expression morphs of a target gene with respect to β actin expression were compared. […]

[4] = test system: IL-1a; test: Reverse transcription polymerase chain reaction on injured tissue of corneal chemical burn model, IL-1a; assay type: in vivo, rat; details: third day and seventh day after keratoconjunctival chemical injury
Method: as §2, §3

[5] = test system: retinal ganglion cell; test: Retinal ganglion cell density on H-E staining, chronic intraocular pressure increase model; assay type: in vivo, rat; details: 8 weeks after the injury
Method: as §1, with “10 eyes of 10 rats were daily treated 4 times with angiogenin 10 μl 2 days before test, and even after espisderal venous electric ablation, 4 times a day at time intervals of 6 hours. The other 10 eyes of the rats, as a control, were consecutively treated in the same manner with physiological saline solution 10 μl before and after the ablation.” left out, “tissue. […]” for “tissue.”

[6] = test system: SDF-1; test: Reverse transcription polymerase chain reaction on injured tissue of corneal chemical burn model, SDF-1; assay type: in vivo, rat; details: third day and seventh day after keratoconjunctival chemical injury
Method: as §2, §3

[7] = test system: angiogenin; test: Angiogenin immunohistochemical staining of glaucoma rat model anterior chamber angle after instillation; assay type: in vivo; details: episcleral venous ablation glaucoma model, 1 hour after instillation, compared to before angiogenin instillation
Method: Eyeballs donated for research purposes were pre-fixed in a 4% paraformaldehyde solution for 6 hours, and then, a tissue thereof was cut to be perpendicular to cornea, including cornea, limbus, and conjunctival, and the obtained tissue was fixed at room temperature for 6 hours. The fixed tissue was rapidly frozen and then a frozen tissue section was prepared and attached to slide glass. Thereafter, for immunohistochemical staining, the tissue section was washed with distilled water for 10 minutes and then, treated with 1% hydrogen peroxide solution for 20 minutes and then, washed three times with 0.02M phosphate buffer solution and treated with normal horse serum for 30 minutes. Then, primary antibody of angiogenin and Indoleamine 2,3-dioxygenase (IDO) were applied thereto for 48 hours, and then the result tissue were washed with PBS, and then, secondary antibody was applied thereto at room temperature for 1 hour. When immunohistochemical staining was completed, the tissue was sealed by poly-mount and identified by optical microscopy. […]

angiogenin: recombinant human angiogenin (R&D systems); 14.4 kDa single chain protein of 123 amino acids, a ribonuclease inducing angiogenesis
average intraocular pressure ([1]; 1 week after the treatment, control 27.8±4.1): 21.4±6.2 mmHg | average intraocular pressure ([1]; 2 weeks after the treatment, control 25±3.0): 20.8±4.0 mmHg | average intraocular pressure ([1]; 4 weeks after the treatment, control 25.6±1.6): 23.6±2.0 mmHg | average intraocular pressure ([1]; 8 weeks after the treatment, control 23.0±2.4): 21.7±3.4 mmHg | average intraocular pressure compared to the control (in words) ([1]; 3 days, and 1, 2, and 4 weeks after the episcleral venous injury): significantly lower | average intraocular pressure ([1]; before test, 10 eyes): 20.6±1.9 mmHg | average intraocular pressure ([1]; for 8 weeks (overall average), control 25.4±3.6): 21.2±3.8 mmHg | intraocular pressure difference to the control ([1]; third day after the treatment (biggest difference)): 6.75±0.3 mmHg | average intraocular pressure ([1]; three days after the treatment, control 27.3±2.9): 20.7±2.6 mmHg | distribution of CD11b marked macrophage in retinal ganglion layer [2]: highly frequently distributed | TGF-β expression compared to the control [3]: less expressed | IL-1a expression compared to the control [4]: less expressed | density of retinal ganglion cell [5]: does not change | SDF-1 expression compared to the control [6]: less expressed | angiogenin stain in anterior chamber angle / at trabecular meshwork [7]: intensified
